The values below are quoted from earlier work in patent US20040142914A1, “Extended transdermal contraceptive regimens” (priority 2002, published 2004).

For this series the following is noted: humans.

On to `C#C[C@]1(OC(C)=O)CC[C@H]2[C@@H]3CCC4=CC(=NO)CC[C@@H]4[C@H]3CC[C@@]21CC` (mixture of isomers) [norgestimate], for which the “share of norgestimate converted to norelgestromin in vivo” value is at least 80%.
